Data reported in US10322115B2, “Amelioration of neural deficits associated with diabetes” (Neuralstem, Inc., priority 2016, dated 2019).

Tests used:
[1] = test system: diabetic mice; assay: Systemic indices of diabetes (body weight, blood glucose, HbA1c) in STZ Type I diabetes model; assay type: in vivo, Swiss Webster mice; settings: Part A, treatment from the outset
Experimental: (§1) Adult female Swiss Webster mice (20-25 grams) were used in the study. They were maintained in a room at 65-82° F. and relative humidity of 30-70% illuminated with fluorescent lighting on a 12 hour light/dark cycle. The animals were maintained 2-3 per cage with free access to dry food and municipal water. Diabetes was induced following an overnight fast by injection of streptozotocin (STZ) (90 mg/kg ip in 0.9% sterile saline) on two consecutive days. Hyperglycemia was confirmed 4 days later in a sample of blood obtained by tail prick using a strip operated reflectance meter. Animals were observed daily and weighed weekly during the study period.
(§2) Test compounds were evaluated, with treatment begun immediately after onset of diabetes (Part A) or after 7-8 weeks of diabetes in Part B. Each group started with 10 animals per group to allow identification of differences in nerve conduction, paw thermal latency and intra-epidermal nerve fiber (IENF) density between control and diabetic mice, assuming the routinely observed 20-40% difference between groups and measurement coefficients of variation of 10-20%.
(§3) PART A (onset) • Control+vehicle • Diabetic+vehicle • Diabetic+insulin (by implanted pellet) • Diabetic+NSI-158 • Diabetic+NSI-189 • Diabetic+NSI-190
(§4) PART B (7-8 weeks) • Control+vehicle • Diabetic+vehicle • Diabetic+NSI-150 • Diabetic+NSI-182 • Diabetic+NSI-183 • Diabetic+NSI-189
Insulin was supplied by an implanted insulin pellet replaced monthly as needed (LinBit™, LinShin, Canada) and the test compounds were supplied by oral gavage. […]

[2] = test system: diabetic mice; assay: MNCV (large motor fiber function) in STZ Type I diabetes model; assay type: in vivo, Swiss Webster mice
Experimental: as §1, §2, §3, §4
(§5) Insulin was supplied by an implanted insulin pellet replaced monthly as needed (LinBit™, LinShin, Canada) and the test compounds were supplied by oral gavage. The following measurements were made 24 hours after delivery of test compound: • Body weight: Weekly from onset of diabetes; • Blood glucose: At onset of diabetes and monthly thereafter; • MNCV (large motor fiber function): Before onset of diabetes and monthly thereafter; • Paw tactile response threshold (large sensory fiber function) by manual von Frey filament: Monthly from onset of diabetes; • Paw thermal response latency (small sensory fiber): Monthly from onset of diabetes; • Corneal nerve density (small sensory fiber structure): Images were collected before onset of diabetes and monthly thereafter; • Barnes maze performance (learning and memory): After 10 weeks of diabetes and at study termination; and • Object recognition test (memory): After 10 weeks of diabetes and at study termination.
(§6) The various procedures set forth above are those described in the art as follows: • Jolivalt, C. G., et al., Exp. Neurol. (2010) 223:422-431; • Jolivalt, C. G., et al., Diabetes Obes. Metab. (2011) 13:990-1000; • Jolivalt, C. G., et al., Neuroscience (2012) 202:405-412; and • Chen, D. K., et al., J. Peripher. Nerv. Syst. (2013) 18:306-315.

[3] = test system: diabetic mice; assay: Paw tactile response threshold by manual von Frey filament (tactile allodynia) in STZ Type I diabetes model; assay type: in vivo, Swiss Webster mice
Experimental: as §1, §2, §3, §4, §5, §6

[4] = test system: diabetic mice; assay: Paw thermal response latency (paw response to heat) in STZ Type I diabetes model; assay type: in vivo, Swiss Webster mice
Experimental: as §1, §2, §3, §4, §5, §6

[5] = test system: diabetic mice; assay: Corneal nerve density (small fiber pathology) in STZ Type I diabetes model; assay type: in vivo, Swiss Webster mice
Experimental: as §1, §2, §3, §4, §5, §6

[6] = test system: diabetic mice; assay: Nerve density in the sub-epidermal nerve plexus in STZ Type I diabetes model; assay type: in vivo, Swiss Webster mice
Experimental: as §1, §2, §3, §4, §5, §6

[7] = test system: diabetic mice; assay: IENF density in isolated paw skin tissue in STZ Type I diabetes model; assay type: in vivo, Swiss Webster mice
Experimental: as §1, §2, §3, §4
Paw skin tissue was evaluated for IENF density in some cases.
as §6

[8] = test system: diabetic mice; assay: Object recognition test (memory) in STZ Type I diabetes model; assay type: in vivo, Swiss Webster mice; settings: Part A (treatment from onset), weeks 10 and 16
Experimental: as §1, §2, §3
PART B (7-8 weeks) • Control+vehicle • Diabetic+vehicle • Diabetic+NSI-150 • Diabetic+NSI-182 • Diabetic+NSI-183 • Diabetic+NSI-189 […]

[9] = test system: diabetic mice; assay: Barnes maze test (learning and memory) in STZ Type I diabetes model; assay type: in vivo, Swiss Webster mice; settings: for Barnes maze long-term retention / Barnes maze other parameters (initial acquisition, reinforced learning, short-term retention): Part A (treatment from onset)
Experimental: as §1, §2, §3, §4, §5, §6

[10] = test system: db/db (BKS.Cg-Dock7^m+/+Lepr^db/J) mice; assay: MNCV in Type II diabetes model; assay type: in vivo; settings: after 17-22 weeks of treatment
Text: (§7) Type II diabetes was modeled by db/db (BKS.Cg-Dock7^m+/+Lepr^db/J) mice. These mice were maintained in a manner similar to that set forth in Example 1.

[11] = test system: db/db (BKS.Cg-Dock7^m+/+Lepr^db/J) mice; assay: Tactile allodynia in Type II diabetes model; assay type: in vivo; settings: after 17-22 weeks of treatment
Text: as §7

[12] = test system: db/db (BKS.Cg-Dock7^m+/+Lepr^db/J) mice; assay: Thermal hypoalgesia in Type II diabetes model; assay type: in vivo; settings: after 17-22 weeks of treatment
Text: as §7

[13] = Part A (treatment from onset of diabetes), end of study period
[14] = Part A (treatment from onset), measured 24 hours after the last treatment
[15] = Part A (treatment from onset), distal regions of small sensory fibers
[16] = Part A (treatment from onset), more proximal regions
[17] = Part B (treatment after 7-8 weeks of diabetes)

Compound | MNCV slowing [2, 13] | paw tactile allodynia [3, 14] | paw thermal hypoalgesia ([4]; Part A (treatment from onset)) | loss of corneal nerve density in Bowman's layer [5, 15] | loss of corneal nerve density in the stroma [5, 16] | reduction of nerve density in the sub-epidermal nerve plexus ([6]; Part A (treatment from onset)) | reduction of IENF density in isolated tissue ([7]; Part A (treatment from onset)) | Barnes maze long-term retention [9] | Barnes maze other parameters (initial acquisition, reinforced learning, short-term retention) [9] | paw tactile allodynia [3, 17] | paw thermal hypoalgesia [4, 17] | loss of corneal nerve density in Bowman's layer [5, 17] | loss of corneal nerve density in the stroma [5, 17] | further results
insulin [reference compound] | prevented | attenuated | prevents this | prevented | prevented | prevented | prevented |  |  |  |  |  |  | hyperglycemia [1]: reduced hyperglycemia; weight gain [1]: partially restored weight gain; HbA1c levels ([1]; terminal): reduced HbA1c levels; object recognition: impaired short-term memory [8]: not prevented; Barnes maze impairments (initial acquisition and long-term retention) ([9]; Part A, insulin pellet): prevented all of this
CCN(CCNC(=O)c1cccnc1NCCC(C)C)Cc1cccnc1 [NSI-190] | mild attenuation of MNCV slowing | attenuated tactile allodynia | prevented paw thermal hypoalgesia | no protective effect | attenuated this loss | attenuated |  | improved long-term retention | without altering the other parameters |  |  |  |  | object recognition: impaired short-term memory [8]: prevented this memory loss
NC(=O)C1CCCN1C(=O)c1cccnc1NCC1CCCCC1 (centres unmarked) [NSI-158] | mild attenuation of MNCV slowing | attenuated tactile allodynia | prevented paw thermal hypoalgesia | no protective effect |  | attenuated | attenuated | improved long-term retention | without altering the other parameters |  |  |  |  | 
CC(C)CCNc1ncccc1C(=O)N1CCN(Cc2ccccc2)CC1 [NSI-189] | mild attenuation of MNCV slowing | attenuated tactile allodynia | prevented paw thermal hypoalgesia | attenuated the loss | attenuated this loss | attenuated | attenuated | improved long-term retention | without altering the other parameters | partially reversed paw tactile allodynia | prevented progression of paw thermal hypoalgesia | protective | protective | MNCV slowing [2, 17]: partially reversed MNCV slowing; reduction of nerve density in the sub-epidermal nerve plexus [6, 17]: protective; reduction of IENF density in isolated tissue [7, 17]: reversed; progressive development of MNCV slowing [10]: significantly reversed; progressive development of tactile allodynia [11]: significantly reversed; progressive development of thermal hypoalgesia [12]: significantly reversed
O=C(COc1ccccc1)NCc1nc2ccccn2c1NCC1CCCO1 (centres unmarked) [NSI-183] |  |  |  |  |  |  |  |  |  | did not | did not | protective | no protective effect | 
C=CCNC(=O)c1cccnc1NCc1ccccc1OC [NSI-150] |  |  |  |  |  |  |  |  |  | did not | did not |  | no protective effect | 
O=C(NCc1nc2ccccn2c1NCC1CCCO1)Oc1ccccc1 (centres unmarked) [NSI-182] |  |  |  |  |  |  |  |  |  | did not | did not | protective | no protective effect | 
